Measured values from PubChem BioAssay (NCI).
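Tested at 5 concentrations; 48 h exposure; 96-well plates; endpoints linearly interpolated, else capped at highest concentration. Definition used: TGI = concentration required for complete inhibition of growth.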

Tests used:
Test in all cases: NCI tumour cell line growth inhibition, 48 h
[1] = tested on: RXF 393 renal
[2] = tested on: PC-3 prostate
[3] = tested on: HT29 colon
[4] = tested on: SF-539 CNS
[5] = tested on: SK-OV-3 ovarian
[6] = tested on: M14 melanoma
[7] = tested on: SF-268 CNS
[8] = tested on: K-562 leukemia
[9] = tested on: SR leukemia
[10] = tested on: RPMI-8226 leukemia
[11] = tested on: A498 renal
[12] = tested on: SK-MEL-28 melanoma
[13] = tested on: MALME-3M melanoma
[14] = tested on: OVCAR-8 ovarian
[15] = tested on: HCT-15 colon
[16] = tested on: CCRF-CEM leukemia
[17] = tested on: HS 578T breast
[18] = tested on: UACC-62 melanoma
[19] = tested on: KM12 colon
[20] = tested on: NCI-H23 lung
[21] = tested on: UO-31 renal
[22] = tested on: DU-145 prostate
[23] = tested on: 786-0 renal
[24] = tested on: HL-60(TB) leukemia
[25] = tested on: IGROV1 ovarian
[26] = tested on: COLO 205 colon
[27] = tested on: SK-MEL-2 melanoma
[28] = tested on: T-47D breast
[29] = tested on: MOLT-4 leukemia
[30] = tested on: NCI-H460 lung
[31] = tested on: TK-10 renal
[32] = tested on: HCC-2998 colon
[33] = tested on: MCF7 breast
[34] = tested on: OVCAR-4 ovarian
[35] = tested on: HCT-116 colon
[36] = tested on: SNB-75 CNS
[37] = tested on: HOP-62 NSCLC
[38] = tested on: SW-620 colon
[39] = tested on: LOX IMVI melanoma
[40] = tested on: BT-549 breast
[41] = tested on: UACC-257 melanoma
[42] = tested on: CAKI-1 renal
[43] = tested on: HOP-92 NSCLC
[44] = tested on: ACHN renal
[45] = tested on: SF-295 CNS
[46] = tested on: SNB-19 CNS
[47] = tested on: NCI/ADR-RES ovarian
[48] = tested on: MDA-MB-435
[49] = tested on: NCI-H226 lung
[50] = tested on: U251 CNS
[51] = tested on: OVCAR-3 ovarian
[52] = tested on: OVCAR-5 ovarian
[53] = tested on: MDA-N
[54] = tested on: SN12C renal
[55] = tested on: MDA-MB-231 breast
[56] = tested on: EKVX NSCLC
[57] = tested on: NCI-H522 lung
[58] = tested on: A549 NSCLC
[59] = tested on: SK-MEL-5 melanoma

SMILES: CC(=O)c1cccc(NC(=O)C(=O)C(c2cnc3ccc([N+](=O)[O-])cc3n2)[N+](=O)[O-])c1 (stereo not given)
- TGI [1]: > 100 µM
- TGI [2]: > 100 µM
- TGI [3]: > 100 µM
- TGI [4]: > 100 µM
- TGI [5]: > 100 µM
- TGI [6]: > 100 µM
- TGI [7]: > 100 µM
- TGI [8]: > 100 µM
- TGI [9]: > 100 µM
- TGI [10]: > 100 µM
- TGI [11]: > 100 µM
- TGI [12]: > 100 µM
- TGI [13]: > 100 µM
- TGI [14]: > 100 µM
- TGI [15]: > 100 µM
- TGI [16]: > 100 µM
- TGI [17]: > 100 µM
- TGI [18]: > 100 µM
- TGI [19]: > 100 µM
- TGI [20]: > 100 µM
- TGI [21]: > 100 µM
- TGI [22]: > 100 µM
- TGI [23]: > 100 µM
- TGI [24]: > 100 µM
- TGI [25]: > 100 µM
- TGI [26]: > 100 µM
- TGI [27]: > 100 µM
- TGI [28]: > 100 µM
- TGI [29]: > 100 µM
- TGI [30]: > 100 µM
- TGI [31]: > 100 µM
- TGI [32]: > 100 µM
- TGI [33]: > 100 µM
- TGI [34]: > 100 µM
- TGI [35]: > 100 µM
- TGI [36]: > 100 µM
- TGI [37]: > 100 µM
- TGI [38]: > 100 µM
- TGI [39]: > 100 µM
- TGI [40]: > 100 µM
- TGI [41]: > 100 µM
- TGI [42]: > 100 µM
- TGI [43]: > 100 µM
- TGI [44]: > 100 µM
- TGI [45]: > 100 µM
- TGI [46]: > 100 µM
- TGI [47]: > 100 µM
- TGI [48]: > 100 µM
- TGI [49]: > 100 µM
- TGI [50]: > 100 µM
- TGI [51]: > 100 µM
- TGI [52]: > 100 µM
- TGI [53]: > 100 µM
- TGI [54]: > 100 µM
- TGI [55]: > 100 µM
- TGI [56]: > 100 µM

SMILES: COc1ccc2c(c1)CCCN2S(=O)(=O)c1ccccc1[N+](=O)[O-]
- TGI [1]: 55.9 µM
- TGI [2]: > 100 µM
- TGI [3]: 77.2 µM
- TGI [4]: 68.8 µM
- TGI [5]: > 77 µM
- TGI [6]: > 92.8 µM
- TGI [7]: > 96.8 µM
- TGI [8]: > 68.9 µM
- TGI [9]: > 78.8 µM
- TGI [10]: 71.3 µM
- TGI [57]: 66.5 µM
- TGI [11]: > 78 µM
- TGI [12]: > 100 µM
- TGI [13]: > 86.3 µM
- TGI [14]: > 89.4 µM
- TGI [15]: > 97.4 µM
- TGI [16]: 80.9 µM
- TGI [17]: > 97.1 µM
- TGI [58]: > 100 µM
- TGI [18]: > 97.5 µM
- TGI [19]: > 100 µM
- TGI [20]: > 100 µM
- TGI [21]: > 94.5 µM
- TGI [22]: > 100 µM
- TGI [23]: > 100 µM
- TGI [24]: 37.1 µM
- TGI [25]: > 100 µM
- TGI [26]: > 79.8 µM
- TGI [27]: 72.4 µM
- TGI [28]: > 87.8 µM
- TGI [29]: 67.3 µM
- TGI [30]: > 87.9 µM
- TGI [31]: 97.1 µM
- TGI [32]: 84.5 µM
- TGI [59]: 62.2 µM
- TGI [33]: 99.3 µM
- TGI [34]: > 100 µM
- TGI [35]: 88.9 µM
- TGI [36]: > 87 µM
- TGI [37]: > 100 µM
- TGI [38]: > 100 µM
- TGI [39]: > 88.6 µM
- TGI [40]: 66.7 µM
- TGI [41]: > 100 µM
- TGI [42]: > 100 µM
- TGI [43]: 97.8 µM
- TGI [44]: > 100 µM
- TGI [45]: > 100 µM
- TGI [46]: > 100 µM
- TGI [47]: > 85.6 µM
- TGI [48]: 22 µM
- TGI [49]: > 96.2 µM
- TGI [50]: > 92 µM
- TGI [51]: > 92.3 µM
- TGI [52]: > 100 µM
- TGI [53]: 26.7 µM
- TGI [54]: > 100 µM
- TGI [55]: > 100 µM
- TGI [56]: > 91.9 µM
